Measured values reported in US20100168146A1, “Composition Comprising (R)-Spiro[L-Azabicyclo[2.2.2]Octane-3,2'(3'H)-Furo[2,3-B]Pyridine (AZD0328) and its Use in the Treatment of Alzheimer's Disease, ADHD or Cognitive Dysfunction” (priority 2008, published 2010).

Assays:
rats = assay: Nicotine drug discrimination; conditions: rat, sc, training drug
Protocol: AZD0328 was tested for its potential to produce nicotine-like stimulus effects after subcutaneous administration in a drug-discrimination procedure (Table 3).

[1] = Pharmacological activity of metabolite; conditions: major metabolite
Protocol: Pyridinyl methylation of AZD0328 was a unique polar metabolite (M2) observed in dog hepatocytes. Other minor hydroxylation/oxidation and glucuronide conjugation products were detected in monkey, dog, rat, and guinea pig hepatocyte incubations and mini-pig hepatic microsome incubations. […] Analysis of plasma and urine samples from either orally or iv dosed rats confirmed N-oxide product of AZD0328 was a main product in the excretion and circulation. The percentage of AZD0328 N-oxide in the plasma from male rats was much higher than from females.

Compound	Response rates (rats)	Pharmacological activity [1]
CN1CCCC1c1cccnc1 (centres unmarked) [nicotine, reference compound]	not significantly affected	
[O-][N+]12CCC(CC1)C1(Cc3cccnc3O1)C2 (centres unmarked) [quinuclidinyl-N-oxide of AZD0328]		pharmacological inactive
